Measured values as given in patent US20070128217A1 (priority 2003, published 2007).

What was measured:
[1] = tested on: antibodies in sera from SARS patients (sera 1a, 1b, 2, 6, 37, 62, London, SARS-yellow, SARS-green); assay type: binding, human; set-up: Binding of serum 6 to linear peptides of protein X1 of SARS-CoV Urbani / Binding of serum 37 to linear peptides of protein X1 of SARS-CoV Urbani / Binding of serum 6 to looped/cyclic peptide (PEPSCAN-ELISA) / Binding of serum 37 to looped/cyclic peptide (PEPSCAN-ELISA) / Binding of serum 37 to looped/cyclic peptides of protein X1 of SARS-CoV Urbani / Binding of serum 6 to linear peptides of protein X2 / Binding of serum 37 to linear peptides of protein X2 / Binding of serum 37 to looped/cyclic peptides of protein X2 of SARS-CoV Urbani / Binding of serum 6 to linear peptides of protein M of SARS-CoV Urbani / Binding of serum 37 to linear peptides of protein M of SARS-CoV Urbani / Binding of serum 6 to looped/cyclic peptides of protein M of SARS-CoV Urbani / Binding of serum 37 to looped/cyclic peptides of protein M of SARS-CoV Urbani / Binding of serum 6 to linear peptides of protein X3 of SARS-CoV Urbani / Binding of serum 37 to linear peptides of protein X3 of SARS-CoV Urbani / Binding of serum 37 to looped/cyclic peptides of protein X3 of SARS-CoV Urbani / Binding of serum 6 to linear peptides of protein X4 of SARS-CoV Urbani / Binding of serum 37 to linear peptides of protein X4 of SARS-CoV Urbani / Binding of serum 37 to looped/cyclic peptides of protein X4 of SARS-CoV Urbani / Binding of serum 6 to linear peptides of protein X5 of SARS-CoV Urbani / Binding of serum 37 to linear peptides of protein X5 of SARS-CoV Urbani / Binding of serum 37 to looped/cyclic peptides of protein X5 of SARS-CoV Urbani / Binding of serum 6 to linear peptides of protein N of SARS-CoV Urbani / Binding of serum 37 to linear peptides of protein N of SARS-CoV Urbani / Binding of serum 6 to linear peptide (PEPSCAN-ELISA) / Binding of serum 1a to looped/cyclic peptides of protein N of SARS-CoV Urbani / Binding of serum 1b to looped/cyclic peptides of protein N of SARS-CoV Urbani / Binding of serum 2 to looped/cyclic peptides of protein N of SARS-CoV Urbani / Binding of serum 6 to looped/cyclic peptides of protein N of SARS-CoV Urbani / Binding of serum 37 to looped/cyclic peptides of protein N of SARS-CoV Urbani / Binding of serum 62 to looped/cyclic peptides of protein N of SARS-CoV Urbani / Binding of serum London to looped/cyclic peptides of protein N of SARS-CoV Urbani / Binding of serum SARS-green to looped/cyclic peptides of protein N of SARS-CoV Urbani: unit not given here
[2] = tested on: control sera (pooled serum of ten healthy LUMC hospital workers; commercial negative donor pooled serum from the Dutch bloodbank); assay type: binding, human; set-up: Binding of Control serum LUMC to linear peptides / Binding of Control serum Blood-bank to linear peptides / Binding of Control serum LUMC to looped peptides / Binding of Control Serum Blood-Bank to Looped peptides / Binding of Control serum LUMC to linear peptides of the protein M of SARS-CoV Urbani / Binding of Control serum Blood-bank to linear peptides of the protein M of SARS-CoV Urbani / Binding of Control serum LUMC to looped peptides of the protein M of SARS-CoV Urbani / Binding of Control Serum Blood-Bank to Looped peptides of the protein M of SARS-CoV Urbani: unit not given here
[3] = tested on: rabbit serum obtained by immunizing a rabbit with the SARS-CoV strain Frankfurt 1; assay type: binding; set-up: Binding of a rabbit serum to linear peptides / Binding of a rabbit serum to looped peptides / Rabbit serum linear peptides / Rabbit serum looped peptides / Binding of a rabbit serum to linear peptides of protein N of SARS-CoV Urbani (Rabbit serum linear peptides) / Binding of a rabbit serum to looped/cyclic peptides of protein N of SARS-CoV Urbani (Rabbit serum looped peptides): unit not given here
[4] = tested on: recombinant human anti-SARS-CoV antibody 03-018; assay type: binding; set-up: Binding of antibody 03-018 to linear peptides of the N protein of SARS-CoV Urbani / Binding of antibody 03-018 to looped/cyclic peptides of the N protein of SARS-CoV Urbani: unit not given here

Sequence | Binding of serum 1a to looped/cyclic peptides of protein N of SARS-CoV Urbani [1] | Binding of serum 1b to looped/cyclic peptides of protein N of SARS-CoV Urbani [1] | Binding of serum 2 to looped/cyclic peptides of protein N of SARS-CoV Urbani [1] | Binding of serum 6 to looped/cyclic peptides of protein N of SARS-CoV Urbani [1] | Binding of serum 37 to looped/cyclic peptides of protein N of SARS-CoV Urbani [1] | Binding of serum 62 to looped/cyclic peptides of protein N of SARS-CoV Urbani [1] | Binding of serum London to looped/cyclic peptides of protein N of SARS-CoV Urbani [1] | Binding of serum SARS-green to looped/cyclic peptides of protein N of SARS-CoV Urbani [1] | Binding of serum SARS-yellow to looped/cyclic peptides of protein N of SARS-CoV Urbani [1] | Binding of Control Serum Blood-Bank to Looped peptides [2] | Binding of Control serum Blood-bank to linear peptides [2] | Binding of Control serum LUMC to linear peptides [2] | Binding of Control serum LUMC to looped peptides [2] | Binding of a rabbit serum to linear peptides of protein N of SARS-CoV Urbani (Rabbit serum linear peptides) [3] | Binding of a rabbit serum to looped/cyclic peptides of protein N of SARS-CoV Urbani (Rabbit serum looped peptides) [3] | Binding of antibody 03-018 to linear peptides of the N protein of SARS-CoV Urbani [4] | Binding of antibody 03-018 to looped/cyclic peptides of the N protein of SARS-CoV Urbani [4] | Binding of serum 1a to linear peptides of protein N of SARS-CoV Urbani [1] | Binding of serum 1b to linear peptides of protein N of SARS-CoV Urbani [1] | Binding of serum 2 to linear peptides of protein N of SARS-CoV Urbani [1] | also measured
QAFGRRGPEQTQGNF | 0.3 | 0.2 | 0.3 | 0.2 | 0.3 | 0.3 | 0.3 | 0.2 | 0.2 | 0.4 | 0.9 | 0.7 | 0.4 | 0.1 | 0.3 | 0.1 | 0.2 | – | – | – | Binding of serum 1a to linear peptide (PEPSCAN-ELISA) [1]: 0.3; Binding of serum 1b to linear peptide (PEPSCAN-ELISA) [1]: 0.1; Binding of serum 2 to linear peptide (PEPSCAN-ELISA) [1]: 0.2; Binding of serum 6 to linear peptide (PEPSCAN-ELISA) [1]: 0.2; Binding of serum 37 to linear peptide (PEPSCAN-ELISA) [1]: 0.6; Binding of serum 62 to linear peptide (PEPSCAN-ELISA) [1]: 0.8; Binding of serum London to linear peptide (PEPSCAN-ELISA) [1]: 0.7; Binding of serum SARS-green to linear peptide (PEPSCAN-ELISA) [1]: 0.2; Binding of serum SARS-yellow to linear peptide (PEPSCAN-ELISA) [1]: 0.4
QGVPINTNSGPDDQI | 0.5 | 0.4 | 0.6 | 0.4 | 0.6 | 1.0 | 0.6 | 1.3 | 1.7 | 1.1 | 0.6 | 0.6 | 0.8 | 0.2 | 0.8 | 0.1 | 0.1 | 0.3 | 0.2 | 0.2 | Binding of serum 6 to linear peptides of protein N of SARS-CoV Urbani [1]: 0.2; Binding of serum 37 to linear peptides of protein N of SARS-CoV Urbani [1]: 0.9; Binding of serum 62 to linear peptides of protein N of SARS-CoV Urbani [1]: 0.6; Binding of serum London to linear peptides of protein N of SARS-CoV Urbani [1]: 0.5; Binding of serum SARS-green to linear peptides of protein N of SARS-CoV Urbani [1]: 0.6; Binding of serum SARS-yellow to linear peptides of protein N of SARS-CoV Urbani [1]: 0.6
QHGKEELRFPRGQGV | 0.4 | 0.3 | 0.5 | 0.4 | 0.6 | 0.4 | 0.6 | 0.4 | 0.7 | 0.7 | 0.8 | 0.7 | 0.7 | 0.2 | 0.5 | 0.1 | 0.2 | 0.2 | 0.2 | 0.3 | Binding of serum 6 to linear peptides of protein N of SARS-CoV Urbani [1]: 0.1; Binding of serum 37 to linear peptides of protein N of SARS-CoV Urbani [1]: 0.7; Binding of serum 62 to linear peptides of protein N of SARS-CoV Urbani [1]: 0.7; Binding of serum London to linear peptides of protein N of SARS-CoV Urbani [1]: 0.5; Binding of serum SARS-green to linear peptides of protein N of SARS-CoV Urbani [1]: 0.4; Binding of serum SARS-yellow to linear peptides of protein N of SARS-CoV Urbani [1]: 0.6
